Experimental data from patent publication US20130289071A1, “TETRAZOLYL-TETRAHYDROPYRIDINE COMPOUNDS FOR INFLAMMATION AND IMMUNE-RELATED USES” (Synta Pharmaceuticals Corp., priority 2010, published 2013).
pIC50: −log10 of the molar value.

How the values were obtained:
IL-2 production = experiment: Inhibition of IL-2 production (Jurkat/PHA/1% FBS, ELISA); format: cell-based; conditions: Homo sapiens, Jurkat, 20 h, Jurkat cells, PHA 2.5 μg/mL
Protocol: JurkaT-cells were placed in a 96 well plate (0.5 million cells per well in 1% FBS medium), and then a test compound of this invention was added at different concentrations. After 10 minutes, the cells were activated with PHA (final concentration 2.5 μg/mL) and incubated for 20 hours at 37° C. under 5% CO2. The final volume was 200 μL. Following incubation, the cells were centrifuged, and the supernatants collected and stored at −70° C. prior to assaying for IL-2 production. A commercial ELISA kit (IL-2 Eli-pair, Diaclone Research, Besancon, France) was used to detect production of IL-2, from which dose response curves were obtained. The IC50 value was calculated as the concentration at which 50% of maximum IL-2 production after stimulation was inhibited versus a non-stimulation control.

[1] = biological target: T1, CRAC ion channels (ICRAC current), RBL-2H3 cells (Rattus norvegicus, UniProt Q5M848); experiment: Automated patch clamp (Qpatch) inhibition of ICRAC current in RBL-2H3 cells; format: cell-based; conditions: 100 nM compound, % ICRAC inhibition
T1 construct: endogenous in cells; host or cells: RBL-2H3 (rat basophilic leukemia) cells
T1 sequence (Q5M848 whole entry): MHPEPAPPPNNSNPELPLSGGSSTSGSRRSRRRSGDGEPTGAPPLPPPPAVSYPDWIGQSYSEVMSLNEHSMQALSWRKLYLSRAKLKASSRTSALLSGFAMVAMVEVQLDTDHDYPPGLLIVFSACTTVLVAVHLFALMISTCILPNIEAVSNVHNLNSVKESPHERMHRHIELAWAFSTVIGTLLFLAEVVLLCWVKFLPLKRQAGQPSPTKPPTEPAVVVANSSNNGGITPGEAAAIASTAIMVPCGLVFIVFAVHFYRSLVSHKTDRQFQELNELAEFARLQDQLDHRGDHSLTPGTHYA
Protocol: Automated patch clamp experiments are conducted with the QPatch 16 (Sophion Bioscience, Ballerup, Denmark) at room temperature (21-25° C.). Immediately following the establishment of giga-seal whole-cell configuration, the cells membrane potential is clamped at 0 mV. Voltage ramps of 50 ms duration spanning the voltage range of −100 to +100 mV are then stimulated at a rate of 0.33 Hz. Currents are filtered at 2.9 kHz and digitized at 200 μs intervals. Capacitive currents and series resistance are determined and corrected before each voltage ramp using the automatic capacitance compensation.
RBL-2H3 are grown in DMEM media supplemented with 10% fetal bovine serum, penicillin 100 U/ml and streptomycin […] in an atmosphere of 95% air/5% CO2. Cells are grown to confluence in 175 cm^2 tissue culture flask. On the experimental day, cells harvested with 0.25% trypsin/0.02% EDTA and resuspended in extracellular solution at density of 5×10^6 cells/ml.
The intracellular solution contains Cs-Glutamate 90 mM; NaCl 8 mM; MgCl2 3 mM; CsCl 20 mM; CsBAPTA 20 mM; HEPES 10 mM; InsP3 0.02 mM; pH=7.2 adjusted with CsOH.
The extracellular solution contains NMDGCl 120 mM; KCl 5.4 mM; CsCl 10 mM; CaCl2 10 mM; MgCl2 1 mM; HEPES 10 mM; Glucose 5.5 mM; at pH=7.4 adjusted with HCl.
ICRAC currents are measured using 50 msec voltage ramps between −100 mV to +100 mV. The voltage ramps are stimulated every 3 seconds for at least 570 seconds. The maximum ICRAC current is allowed to develop for at least 135 seconds. Compounds diluted in extracellular solutions are then applied twice, 30 seconds apart. After incubating the cells with compound for 435 seconds, a reference solution is applied at the end of the experiment. The reference solution is a Ca^2+ free extracellular solution.
Off-line analysis with the Qpatch software is used to plot the current value at −80 mV for each ramp trace against time. The resulting current versus time data is then exported into a Microsoft Excel spreadsheet. The ICRAC membrane currents are separated from the cells basal background currents by either subtracting out the average membrane current values during the first 1-3 traces, or the average membrane current values obtained with the reference solution at the end of the experiment. The % ICRAC inhibition in each cell is calculated by comparing the amount of current just prior to the first compound addition to the amount of current after the cells has been perfused with the compound for at least 400 seconds.

Row | SMILES | pIC50 (IL-2 production) | inhibition at 0.1 µM [1] [%]
1 | Cn1nnc(N2CCC(C3CC3)=C(c3ccc(NC(=O)c4c(F)cccc4F)cc3)C2)n1 [Compound 9] | 7.82 | 67
2 | CCc1c(F)cncc1C(=O)Nc1ccc(C2=C(C)CCN(c3nnn(C)n3)C2)cc1 [Compound 10] | 7.80 | 87
3 | CC1=C(c2ccc(NC(=O)c3c(F)cccc3F)cc2)CN(c2nnn(C)n2)CC1 [Compound 11] | 7.77 | 53
4 | CC1=C(c2ccc(NC(=O)c3ccncc3Cl)cc2)CN(c2nnn(C)n2)CC1 [Compound 15] |  | 53
5 | Cn1nnc(N2CCC(Cl)=C(c3ccc(NC(=O)c4c(F)cccc4F)cc3)C2)n1 [Compound 18] |  | 74
6 | CCC1=C(c2ccc(NC(=O)c3cnccc3C)cc2)CN(c2nnn(C)n2)CC1 [Compound 22] | 7.54 | 43
7 | CCn1nnc(N2CCC(C)=C(c3cnc(NC(=O)c4c(F)cccc4Cl)cn3)C2)n1 [Compound 23] |  | 81
8 | CC1=C(c2ccc(NC(=O)c3ccncc3F)cc2)CN(c2nnn(C)n2)CC1 [Compound 26] | 7.43 | 69
9 | CCn1nnc(N2CCC(C)=C(c3ccc(NC(=O)c4cncc(F)c4C)cc3)C2)n1 [Compound 27] | 7.43 | 68
10 | CC1=C(c2ccc(NC(=O)c3c(C)cccc3Cl)cc2)CN(c2nnn(C)n2)CC1 [Compound 31] |  | 72
11 | Cn1nnc(N2CCC(Cl)=C(c3cnc(NC(=O)c4cc(F)ccc4Cl)cn3)C2)n1 [Compound 36] |  | 88
12 | Cn1nnc(N2CCC(C3CC3)=C(c3cnc(NC(=O)c4cccc(F)c4F)cn3)C2)n1 [Compound 39] | 7.29 | 69
13 | Cn1nnc(N2CCC(C3CC3)=C(c3cnc(NC(=O)c4c(F)cccc4F)cn3)C2)n1 [Compound 40] | 7.28 | 54
14 | CC1=C(c2ccc(C(=O)Nc3c(F)cccc3F)cc2)CN(c2nnn(C)n2)CC1 [Compound 41] | 7.27 | 60
15 | Cc1ccncc1C(=O)Nc1ccc(C2=C(Cl)CCN(c3nnn(C)n3)C2)cc1 [Compound 45] | 7.23 | 60
16 | CC1=C(c2ccc(NC(=O)c3ccncc3C)cc2)CN(c2nnn(C)n2)CC1 [Compound 46] | 7.22 | 54
17 | CC1=C(c2ccc(NC(=O)c3cnccc3C)cc2)CN(c2nnn(C)n2)CC1 [Compound 47] | 7.21 | 70
18 | CC1=C(c2cnc(NC(=O)c3cc(F)ccc3Cl)cn2)CN(c2nnn(C)n2)CC1 [Compound 56] | 7.00 | 84

Results, then the molecule that gave them:

Row | pIC50 (IL-2 production) | inhibition at 0.1 µM [1] [%] | SMILES
19 | 7.74 | 74 | CC1=C(c2ccc(NC(=O)c3cccc(F)c3F)cc2)CN(c2nnn(C)n2)CC1 [Compound 14]
20 |  | 69 | CC1=C(c2ccc(NC(=O)c3cccc(F)c3Cl)cc2)CN(c2nnn(C)n2)CC1 [Compound 16]
21 |  | 65 | CC1=C(c2ccc(NC(=O)c3cccc(F)c3C)nc2)CN(c2nnn(C)n2)CC1 [Compound 20]
22 |  | 85 | CC1=C(c2ccc(NC(=O)c3cc(F)ccc3C)nc2)CN(c2nnn(C)n2)CC1 [Compound 29]
23 | 7.30 | 61 | CC1=C(c2cnc(NC(=O)c3cccc(F)c3F)cn2)CN(c2nnn(C)n2)CC1 [Compound 37]
24 | 7.29 | 48 | CC1=C(c2ccc(NC(=O)c3cccc(F)c3C)cc2)CN(c2nnn(C)n2)CC1 [Compound 38]
25 | 7.04 | 77 | CC1=C(c2cnc(NC(=O)c3ccccc3F)cn2)CN(c2nnn(C)n2)CC1 [Compound 54]
26 | 6.94 | 64 | CC1=C(c2cnc(NC(=O)c3cccc(F)c3C)cn2)CN(c2nnn(C)n2)CC1 [Compound 61]
